In PubChem BioAssay AID1259408 (Genetic Toxicology Data Bank (GENE-TOX), 2018) one finds mutagenic call and call data, which are given here for 22 compounds.

The source made the active and inactive calls. How the calls were made is not given here.

This data set concerns GENE-TOX genotoxicity assays, various organisms and cells. In words: GENE-TOX mutagenicity studies. To be noted: for call: Assay Type: In vivo carcinogenicity studies.
The mark [1] stands for this setting: Species/Cell Type: Nonhuman, Assay Type: Sister-chromatid exchange (SCE) in vitro, Assay Code: SC2+D, Dose Response: With dose response, Evaluation Type: Evaluation B (Post-1980).
Where [2] appears, read: Species/Cell Type: Salmonella typhimurium (one or more of the five standard strains: TA98, TA100, TA1535, TA1537, and TA1538), Assay Type: Histidine reverse gene mutation, Ames assay, Assay Code: SAL+*, Activation: With metabolic activation, Evaluation Type: Evaluation A (Pre-1980).
Setting [3] is: Species/Cell Type: Drosophila melanogaster, Assay Type: Sex-linked recessive lethal gene mutation, Assay Code: SRLT, Evaluation Type: Evaluation A (Pre-1980).
The mark [4] stands for this setting: Species/Cell Type: Nonhuman, Assay Code: CCG+L, Evaluation Type: Evaluation A (Pre-1980).
The mark [5] stands for this setting: Species/Cell Type: Mammalian polychromatic erythrocytes, Assay Type: Micronucleus test, chromosome aberrations, Assay Code: MNT+, Evaluation Type: Evaluation B (Post-1980).
[6] abbreviates: Species/Cell Type: Salmonella typhimurium (one or more of the five standard strains: TA98, TA100, TA1535, TA1537, and TA1538), Assay Type: Histidine reverse gene mutation, Ames assay, Assay Code: SALT, Evaluation Type: Evaluation A (Pre-1980).
Where [7] appears, read: Species/Cell Type: Nonhuman, Assay Code: CCG+, Evaluation Type: Evaluation A (Pre-1980).
[8] abbreviates: Species/Cell Type: Salmonella typhimurium (one or more of the five standard strains: TA98, TA100, TA1535, TA1537, and TA1538), Assay Type: Histidine reverse gene mutation, Ames assay, Assay Code: SAL+, Evaluation Type: Evaluation A (Pre-1980).
[9] abbreviates: Species/Cell Type: Bacillus subtilis (H17 vs M45), Assay Type: Rec-assay, spot test, DNA effects (bacterial DNA repair), Assay Code: REWT, Evaluation Type: Evaluation A (Pre-1980).
[10] abbreviates: Species/Cell Type: Bacillus subtilis (H17 vs M45T), Assay Type: Rec-assay, spot test, DNA effects (bacterial DNA repair), Assay Code: REXT, Evaluation Type: Evaluation A (Pre-1980).
Where [11] appears, read: Species/Cell Type: Chinese hamster ovary (CHO) cells, Assay Type: Forward gene mutation at the HPRT locus, Assay Code: CHO+, Evaluation Type: Evaluation B (Post-1980).
Where [12] appears, read: Species/Cell Type: Escherichia coli polA (W3119 vs P3478), Assay Type: Rec-assay, DNA effects (bacterial DNA repair), Assay Code: RE1T, Evaluation Type: Evaluation A (Pre-1980).
[13] abbreviates: Species/Cell Type: Mouse, Sex: Male, Assay Type: Sperm morphology, Assay Code: SPI+, Evaluation Type: Evaluation A (Pre-1980).

On to `Cc1c2ccccc2cc2ccc3ccccc3c12`, for which the mutagenic call is “active; positive” under setting [1] and “active; positive” under setting [2].

In the case of `ClC1=C(Cl)C2(Cl)C3C(Cl)C=CC3C1(Cl)C2(Cl)Cl` (centres undefined), the mutagenic call is “no conclusion” under setting [3] and “active; positive” (Species/Cell Type: Zea mays (corn), Assay Type: Gene mutation, Assay Code: ZEM+, Evaluation Type: Evaluation A (Pre-1980)). Moreover, the call under setting [4] is “active; positive”.

As to `COC(=O)C1=CCCN(N=O)C1`, the mutagenic call runs as follows: under setting [3], “no conclusion”; under setting [2], “active; positive”.

Take `O=C(O)C(Cl)(Cl)Cl`: the mutagenic call is “active; positive” under setting [5]; “no conclusion” under setting [6]; “active; positive” (Species/Cell Type: Vicia faba, Assay Type: Chromosome aberrations, Assay Code: VIC+, Evaluation Type: Evaluation A (Pre-1980)).

On to `CC(=O)Nc1ccc([C@@H]2O[C@H]2c2ccccc2)cc1`, for which the mutagenic call under setting [6] is reported as “no conclusion”.

As to `Nc1ccc2ccc3cccc4ccc1c2c34`, the mutagenic call under setting [2] was “active; positive”.

As to `NC(Cc1ccc(N(CCCl)CCCl)cc1)C(=O)O` (centres undefined), the mutagenic call (Species/Cell Type: Drosophila melanogaster, Assay Type: Sex-linked recessive lethal gene mutation, Assay Code: SRL+, Evaluation Type: Evaluation A (Pre-1980)) is “active; positive”. For the same compound, the call under setting [7] was “active; positive”.

Consider `NC12CC3CC(CC(C3)C1)C2`, for which the mutagenic call (Species/Cell Type: Fischer rat embryo (RLV/1706) cells, Assay Type: Cell transformation, viral enhanced, Assay Code: CTR-, Evaluation Type: Evaluation A (Pre-1980)) is “inactive; negative”.

As to `N[C@@H](CS)C(=O)O`, the mutagenic call reads like this: (Species/Cell Type: Allium cepa, Assay Type: Chromosome aberrations, Assay Code: ALC-, Evaluation Type: Evaluation A (Pre-1980)) “inactive; negative”; (Species/Cell Type: Human lymphocytes, Assay Type: Sister-chromatid exchange (SCE) in vitro, Assay Code: SCLT, Evaluation Type: Evaluation B (Post-1980)) “no conclusion”; (Species/Cell Type: Human, Assay Type: Sister-chromatid exchange (SCE) in vitro, Assay Code: SC1T, Evaluation Type: Evaluation B (Post-1980)) “no conclusion”; under setting [1], “active; positive”.

In the case of `NC(Cc1c[nH]c2ccccc12)C(=O)O` (centres undefined), the mutagenic call (Species/Cell Type: Human, Sex: Male, Assay Type: Sperm morphology, Assay Code: SPH-, Evaluation Type: Evaluation A (Pre-1980)) is “inactive; negative”.

Consider `COc1cc(N=Nc2ccccc2)ccc1[N+](=O)[O-]`, for which the mutagenic call under setting [8] is “active; positive”.

As for `CCN(Cc1cccc(S(=O)(=O)O)c1)c1ccc(C(=C2C=CC(=[N+](CC)Cc3cccc(S(=O)(=O)O)c3)C=C2)c2ccc(O)cc2S(=O)(=O)[O-])cc1`, the mutagenic call under setting [9] is given as “no conclusion”; the mutagenic call under setting [10] is reported as “no conclusion”; the mutagenic call under setting [5] is “active; positive”; the mutagenic call (Species/Cell Type: Saccharomyces cerevisiae, Assay Type: Mitotic recombination or gene conversion, Assay Code: YEC-, Evaluation Type: Evaluation A (Pre-1980)) is “inactive; negative”; the mutagenic call (Species/Cell Type: Salmonella typhimurium (one or more of the five standard strains: TA98, TA100, TA1535, TA1537, and TA1538), Assay Type: Histidine reverse gene mutation, Ames assay, Assay Code: SAL-, Evaluation Type: Evaluation A (Pre-1980)) was “inactive; negative”.

With `COc1c(O)c2c(c3cc(C(=O)N4CCc5c4c(O)c(OC)c4[nH]c(C(=O)N6C[C@H]7C[C@@]78C6=CC(=O)c6[nH]cc(C)c68)cc54)[nH]c13)CCN2C(N)=O`, the mutagenic call under setting [5] was “active; positive”.

For `CC(=O)Nc1nc(/C=C/c2ccc([N+](=O)[O-])o2)cs1`, the mutagenic call under setting [8] was “active; positive”.

For `Nc1ccc(-c2nc(NCCO)c3ccccc3n2)s1`, under setting [6], the mutagenic call is listed as “no conclusion”.

For the compound `ClCCBr`, the mutagenic call reads like this: under setting [11], “active; positive”; (Species/Cell Type: Escherichia coli polA (W3119 vs P3478), Assay Type: Rec-assay, DNA effects (bacterial DNA repair), Assay Code: RE1+, Evaluation Type: Evaluation A (Pre-1980)) “active; positive”.

Turning to `O=C(O)O`, the mutagenic call runs as follows: (Species/Cell Type: Bacillus subtilis (H17 vs M45), Assay Type: Rec-assay, spot test, DNA effects (bacterial DNA repair), Assay Code: REW+, Evaluation Type: Evaluation A (Pre-1980)) “active; positive”; under setting [12], “no conclusion”.

For the compound `Cc1ccccc1N=Nc1c(O)ccc2ccccc12`, the mutagenic call under setting [10] is “no conclusion”. Further, the call under setting [7] is “active; positive”.

Turning to `COc1cccc2c1C(=O)c1c(O)c3c(c(O)c1C2=O)C[C@@](O)(C(=O)CO)C[C@@H]3O[C@H]1C[C@H](N)[C@H](O)[C@H](C)O1`, the mutagenic call is “active; positive” (Species/Cell Type: Chinese hamster lung (V79) cells, Assay Type: Forward gene mutation at the HPRT or ouabain locus, Assay Code: V79+, Evaluation Type: Evaluation A (Pre-1980)); “active; positive” under setting [11]; “active; positive” (Species/Cell Type: Fischer rat embryo (RLV/1706) cells, Assay Type: Cell transformation, viral enhanced, Assay Code: CTR+, Evaluation Type: Evaluation A (Pre-1980)); “active; positive” (Species/Cell Type: Human lymphocytes or leukocytes, Assay Type: Chromosome aberrations in vitro, Assay Code: CY7+, Evaluation Type: Evaluation A (Pre-1980)); “active; positive” (Species/Cell Type: Human lymphocytes, Assay Type: Sister-chromatid exchange (SCE) in vitro, Assay Code: SCL+D, Dose Response: With dose response, Evaluation Type: Evaluation B (Post-1980)); “active; positive” (Species/Cell Type: Human lymphocytes, Assay Type: Sister-chromatid exchange (SCE) in vivo, Assay Code: SCY+D, Dose Response: With dose response, Evaluation Type: Evaluation A (Pre-1980)). Further, the mutagenic call (Species/Cell Type: Human, Assay Type: Sister-chromatid exchange (SCE) in vitro, Assay Code: SC1+D, Dose Response: With dose response, Evaluation Type: Evaluation A (Pre-1980)) is “active; positive”; the mutagenic call (Species/Cell Type: Human, Sex: Male, Assay Type: Sperm morphology, Assay Code: SPH+, Evaluation Type: Evaluation A (Pre-1980)) is “active; positive”; the mutagenic call (Species/Cell Type: Mammalian polychromatic erythrocytes, Assay Type: Micronucleus test, chromosome aberrations, Assay Code: MNT+, Evaluation Type: Evaluation A (Pre-1980)) was “active; positive”; the mutagenic call under setting [13] was “active; positive”; the mutagenic call (Species/Cell Type: Nonhuman, Assay Type: Sister-chromatid exchange (SCE) in vitro, Assay Code: SC2+D, Dose Response: With dose response, Evaluation Type: Evaluation A (Pre-1980)) is “active; positive”; the mutagenic call (Species/Cell Type: Nonhuman, Assay Type: Sister-chromatid exchange (SCE) in vivo, Assay Code: SC3+D, Dose Response: With dose response, Evaluation Type: Evaluation A (Pre-1980)) was “active; positive”. In addition, the mutagenic call under setting [8] is “active; positive”. Under setting [7], the call is “active; positive”.

In the case of `CC1=CCc2c1c(C)cc1c2ccc2ccccc21`, the mutagenic call under setting [2] is “active; positive”.

Consider `O=S(=O)(O)c1cc(-n2nc3ccc4ccccc4c3n2)ccc1/C=C/c1ccccc1`, for which the mutagenic call is, setting by setting: (Species/Cell Type: Rodents, Sex: Male, Assay Type: Dominant lethal test, Assay Code: DLT-, Evaluation Type: Evaluation A (Pre-1980)) “inactive; negative”; (Species/Cell Type: Saccharomyces cerevisiae, Assay Type: Mitotic recombination or gene conversion, Assay Code: YECT, Evaluation Type: Evaluation A (Pre-1980)) “no conclusion”; under setting [6], “no conclusion”.

As for `COC1=CC(=O)C[C@@H](C)[C@]12Oc1c(Cl)c(OC)cc(OC)c1C2=O`, the mutagenic call was “active; positive” (Species/Cell Type: Allium cepa, Assay Type: Chromosome aberrations, Assay Code: ALC+, Evaluation Type: Evaluation A (Pre-1980)); “active; positive” (Species/Cell Type: Aspergillus nidulans, Assay Type: Aneuploidy, chromosome aberrations, Assay Code: ASN+, Evaluation Type: Evaluation A (Pre-1980)); “no conclusion” (Species/Cell Type: Aspergillus nidulans, Assay Type: Mitotic recombination, Assay Code: ASGT, Evaluation Type: Evaluation A (Pre-1980)); “no conclusion” under setting [9]; “no conclusion” under setting [12]; “no conclusion” (Species/Cell Type: Mammalian polychromatic erythrocytes, Assay Type: Micronucleus test, chromosome aberrations, Assay Code: MNTT, Evaluation Type: Evaluation A (Pre-1980)). In addition, the mutagenic call was “active; positive” under setting [13]; “active; positive” (Species/Cell Type: Nonhuman, Assay Type: Sister-chromatid exchange (SCE) in vivo, Assay Code: SC3+D, Dose Response: With dose response, Evaluation Type: Evaluation B (Post-1980)); “inactive; negative” (Species/Cell Type: Saccharomyces cerevisiae, Assay Type: Mitotic recombination or gene conversion, Assay Code: YEH-, Evaluation Type: Evaluation A (Pre-1980)); “no conclusion” under setting [6]. Besides, the call under setting [4] is “active; positive”.
